Laboratory results as given in patent US6867180B1, “Use of calreticulin and calreticulin fragments to inhibit endothelial cell growth and angiogenesis, and suppress tumor growth” (The United States of America as represented by the …, priority 1998, dated 2005).
Where two headings read alike, the source gives them in different places. Where no end group is shown, it is not given here.

Key:
[1] = system: human B cell lines VDS-O and CA-46; assay: Proliferation of indicator B cell lines; format: cell-based; conditions: 1-100 μg/ml
Text: Human mononuclear cells, and mononuclear cells enriched for T or B lymphocytes, were used in proliferation assays in the presence of phytohemagglutinin (Sigma), pokeweed-mitogen (Sigma), or Epstein-Barr virus (B95-8 strain), as described (Tosato et al., J. Immunol. 140:4329-4336, 1988). The lymphoblastoid cell line VDS-O (Tosato, et al., J. Immunol. 137:2037-2042, 1986); the Burkitt lymphoma cell lines CA46, BL-41, KK124, Ag876, SHO (Cherney et al., Cancer Res. 57:2508-2515, 1997); the T-cell line Molt-4 (ATCC); the Hodgkin's lymphoma cell line Hs445 (ATCC); the prostate adenocarcinoma cell lines TSU-Prl (from A. Passaniti, NIH, Baltimore, Md.), Du145 (ATCC), and PC3 (ATCC); and the acute promyelocytic leukemia cell line HL-60 (ATCC) were cultured in RPMI 1640 medium with 10% heat inactivated fetal calf serum (BioWhittaker), 20 mM L-glutamine (Sigma) and 5 μg/ml gentamicin, and tested in 3-5 day proliferation assays at cell densities ranging from 300 to 2400 cells/well. All other cell lines were tested for proliferation in 3-day assays. The neuroblastoma cell line SKNMC (ATCC) was cultured in EMEM medium (BioWhittaker) with 10% heat inactivated fetal calf serum (BioWhittaker) and 5 μg/ml gentamicin (Sigma) and tested for proliferation at 125-1000 cells/well. The lung adenocarcinoma cell line A549 (ATCC) was cultured in F-12 Nutrient Mixture (HAM, GIBCO BRL) with 10% heat inactivated fetal calf serum (BioWhittaker) and 5 μg/ml gentamicin (Sigma), and tested for proliferation at 250-2000 cells/well. The breast adenocarcinoma MDA-MB-468 (ATCC) and the Wilms tumor SK-NEP-1(ATCC) cell lines were cultured in Leibovitz L-15 medium (GIBCO BRL) supplemented with 10% heat inactivated fetal calf serum (BioWhittaker) and 5 μg/ml gentamicin (Sigma), and tested for proliferation at 300-2500 cells/well. The colon carcinoma cell line SW480 (ATCC), the melanoma cell line A-375 (ATCC), and human foreskin fibroblasts (H568, ATCC) were cultured in DMEM medium (BioWhittaker) with 10% heat inactivated fetal calf serum (BioWhittaker) and 5 μg/ml gentamicin (Sigma), and were tested for proliferation at 500-4000 cells/well. All cell lines tested mycoplasma negative.

[2] = system: Fetal bovine heart endothelial cells
Procedure: Fetal bovine heart endothelial cells (American Type Culture Collection, ATCC, Manassas, Va.) were grown through passage 12 in DMEM culture medium (BioWhittaker, Walkersville, Md.) containing 10% heat inactivated fetal bovine serum (BioWhittaker), 100 ng/ml bFGF (R&D Systems, Minneapolis, Minn.), and 5 μg/ml gentamicin (Sigma). For proliferation assays, cells were trypsinized (Trypsin/EDTA, Gibco BRL), washed, suspended in culture medium (DMEM containing 10% heat inactivated fetal bovine serum and 5 μg/ml gentamicin), plated (800 cells/well in 0.2 ml culture medium) in triplicate onto 96 well plates, and incubated for 5 days.

[3] = target: T1, recombinant MBP-calreticulin fragment 120-180 (Seq. I.D. No. 5) (human, UniProt P14211 137-197 (mouse entry)); assay: affinity column carrying a mixture of the three peptides on Sepharose
T1 construct: also called MBP-120-180 calreticulin; 61 amino acid calreticulin fragment
T1 sequence: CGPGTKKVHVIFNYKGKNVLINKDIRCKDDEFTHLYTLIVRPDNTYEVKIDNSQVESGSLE
Procedure: To this end, purified preparations of the VDS-O cell line containing full length calreticulin (Seq. I.D. No. 3) as well as N-terminal calreticulin fragments were prepared and tested to determine how these components were retained over an affinity column. To prepare the affinity column, three peptides were synthesized ([…], Seq. I.D. 13; KAFFKR, Seq. I.D. No. 33; and KVFFKR, Seq. I.D. No. 32), purified, and coupled to CNBr-activated Sepharose 4B (Pharmacia). […] The purified preparations of VDS-O cell line containing both full length as well as N-terminal calreticulin fragments were then loaded on the column (Starting material).
To address this issue further, recombinant MBP-calreticulin fragment 120–180 (Seq. I.D. No. 5) was tested for its ability to bind to the affinity column described supra.

[4] = system: peptides KLGFFKR, KAFFKR and KVFFKR coupled to CNBr-activated Sepharose; assay: Affinity column binding to integrin / steroid receptor motif peptides; conditions: elution with 20 mM EDTA
Text: FIG. 18 is a Western blot analysis of fractions obtained through affinity purification over a column containing KXaa1FFXaa2R (Seq. I.D. No. 11) and KXaa1GFFKR (Seq. I.D. No. 10). Purified supernatants from the VDS-0 cell line containing full length calreticulin and N-terminal fragments of calreticulin were affinity purified over a mixture of peptides KLGFFKR (Seq. I.D. No. 13), KAFFKR (Seq. I.D. No. 33) and KVFFKR (Seq. I.D. No. 32) coupled to CNBr-activated Sepharose. Starting material (lane 1), unbound material (lanes 2, 3) and bound material (lanes 4, 5) were separated by SDS-PAGE, transferred to nitrocellulose, and subsequently stained with a rabbit antiserum against human calreticulin.
To this end, purified preparations of the VDS-O cell line containing full length calreticulin (Seq. I.D. No. 3) as well as N-terminal calreticulin fragments were prepared and tested to determine how these components were retained over an affinity column. To prepare the affinity column, three peptides were synthesized ([…], Seq. I.D. 13; KAFFKR, Seq. I.D. No. 33; and KVFFKR, Seq. I.D. No. 32), purified, and coupled to CNBr-activated Sepharose 4B (Pharmacia). First, the ability of calreticulin, purified from the culture supernatant of the lymphoblastoid cell line VDS-O, to selectively bind to the column and be eluted by a buffer solution containing 20 mM EDTA and 100 mM NaCl, was verified. […]

[5] = system: bFGF-induced neovascularization; assay: Murine Matrigel assay of angiogenesis in vivo; parameters: species or system BALB/c nude mice; conditions: Exp. 4; concentration not given; bFGF 150 ng/ml
Procedure: The murine Matrigel assay (Passaniti et al., Lab. Invest. 67:519-528, 1992) was employed to evaluate the effects of calreticulin and calreticulin fragments on angiogenesis in vivo. The Matrigel assay was performed as described by Angiolillo et al. (J. Exp. Med. 182:155-162, 1995). Matrigel, a crude extract of the Englebreth-Holm-Swarm tumor, was obtained from Collaborative Biomedical Products, Becton Dickinson Labware, Bedford, Mass. An aliquot (0.5 ml) of Matrigel alone or with desired additives was injected subcutaneously (s.c.) into the mid abdominal region of female BALB/c nude mice, 6-8 weeks old. Five mice were injected with each mixture. After 5-7 days, the animals were sacrificed, Matrigel plugs were removed, fixed in 10% neutral buffered formalin solution (Sigma), and embedded in paraffin. Tissues were sectioned (5μ thickness), and slides stained with Masson's trichrome. Quantitative analysis of angiogenesis in Matrigel plugs utilized a computerized semi-automated digital analyzer (Optomax, 40-10 System, Hollis, N.H.). The instrument was adjusted to evaluate a circular area measuring […] of Matrigel, and within this area, to measure the area occupied by cells. For each plug, 12-15 distinct fields were evaluated. The fields were randomly selected from each plug, and the operator was blind to the experimental design. The average area occupied by cells/1.26×10^5 […] Matrigel field was calculated. Results are expressed as the mean area occupied by cells/Matrigel field.
Matrigel plugs were fixed in 10% neutral buffered formalin solution (Sigma), embedded in paraffin, sectioned at 4 μm, and stained with Masson's trichrome by standard methods.

[6] = Table 3 exp. 1, 50 μg/ml, bFGF 25 ng/ml, 5 days
[7] = Table 3 exp. 1, 100 μg/ml, bFGF 25 ng/ml, 5 days
[8] = Table 3 exp. 2, 100 μg/ml, bFGF 25 ng/ml, 5 days
[9] = Table 3 exp. 1, 12.5 μg/ml, bFGF 25 ng/ml, 5 days
[10] = Table 3 exp. 1, 25 μg/ml, bFGF 25 ng/ml, 5 days
[11] = Table 3 exp. 2, 50 μg/ml, bFGF 25 ng/ml, 5 days
[12] = Table 1 exp. 3, estimated concentration 0.160 μg/ml, bFGF 25 ng/ml, 5 days
[13] = Table 1 exp. 1-2, 1 μg/ml, bFGF 25 ng/ml, 5 days

Molecule: GPGTKKVHVIFNYKGKNVLINKDIRCKDDEFTHLYTLIVRPDNTYEVKIDNSQVESGSLE [60 amino acid peptide]
- effect on proliferation of B cell lines VDS-O and CA-46 [1]: neither peptide inhibited the proliferation
- effect on proliferation of B cell lines VDS-O and CA-46 ([1]; listed as 60 amino acid fragment): minimal effect
- Inhibition (%) [2, 6]: 40.1%
- Proliferation (mean cpm/culture) [2, 6]: 8,318 cpm/culture
- Inhibition (%) [2, 7]: 87.9%
- Proliferation (mean cpm/culture) [2, 7]: 1,688 cpm/culture
- Inhibition (%) [2, 8]: 59.5%
- Proliferation (mean cpm/culture) [2, 8]: 3,709 cpm/culture

Molecule: NYKGKNVLINKDIRCKDDEFTHLYTLIVRPDNTYEVKIDNSQVESGSLE [49 amino acid peptide]
- effect on proliferation of B cell lines VDS-O and CA-46 [1]: neither peptide inhibited the proliferation
- effect on proliferation of B cell lines VDS-O and CA-46 ([1]; listed as 49 amino acid fragment): minimal effect
- Inhibition (%) [2, 9]: 30.2%
- Proliferation (mean cpm/culture) [2, 9]: 9,743 cpm/culture
- Inhibition (%) [2, 10]: 56.7%
- Proliferation (mean cpm/culture) [2, 10]: 6,037 cpm/culture
- Inhibition (%) [2, 6]: 68.7%
- Proliferation (mean cpm/culture) [2, 6]: 4,368 cpm/culture
- Inhibition (%) [2, 11]: 45.4%
- Proliferation (mean cpm/culture) [2, 11]: 5,004 cpm/culture

Molecule: RANTES [reference compound]
- inhibitory effect of control peptide in endothelial cell assays [2]: no inhibitory effect
- Proliferation (mean cpm/culture) [2, 7]: 16,443 cpm/culture
- Proliferation (mean cpm/culture) ([2]; Table 3 exp. 2, 12.5 μg/ml, bFGF 25 ng/ml, 5 days): 13,644 cpm/culture
- Proliferation (mean cpm/culture) [2, 11]: 10,291 cpm/culture

Molecule: light chain of human ferritin: recombinant purified light chain of human ferritin [reference compound]
- effect on the proliferation of endothelial cells ([2]; 1 pg to 1 μg/ml, not shown): minimal effect

B1: peptide KLGFFKR (Seq. I.D. No. 13) (peptide)
peptide: KLGFFKR
notes: Synthetic peptide, coupled to Sepharose in a mixture with the two other peptides; also called portion of an integrin
- binding result [3]: no binding

B2: peptide KAFFKR (Seq. I.D. No. 33) (peptide)
peptide: KAFFKR
notes: Synthetic peptide, coupled to Sepharose in a mixture with the two other peptides; also called portion of the estrogen receptor
- binding result [3]: no binding

B3: peptide KVFFKR (Seq. I.D. No. 32) (peptide)
peptide: KVFFKR
notes: Synthetic peptide, coupled to Sepharose in a mixture with the two other peptides; also called portion of the glucocorticoid receptor
- binding result [3]: no binding

B4: Gel-eluted calreticulin: natural calreticulin from purified VDS-O B cell line supernatant, 55 kDa band eluted from gel (protein)
chain: EPAVYFKEQFLDGDGWTSRWIESKHKSDFGKFVLSSGKFYGDEEKDKGLQTSQDARFYALSASFEPFSNKGQTLVVQFTVKHEQNIDCGGGYVKLFPNSLDQTDMHGDSEYNIMFGPDICGPGTKKVHVIFNYKGKNVLINKDIRCKDDEFTHLYTLIVRPDNTYEVKIDNSQVESGSLEDDWDFLPPKKIKDPDASKPEDWDERAKIDDPTDSKPEDWDKPEHIPDPDAKKPEDWDEEMDGEWEPPVIQNPEYKGEWKPRQIDNPDYKGTWIHPEIDNPEYSPDPSIYAYDNFGVLGLDLWQVKSGTIFDNFLITNDEAYAEEFGNETWGVTKAAEKQMKDKQDEEQRLKEEEEDKKRKEEEEAEDKEDDEDKDEDEEDEEDKEEDEEEDVPGQAKDEL
- binding to peptide affinity column [4]: retained by the column
- Inhibition (%) [2, 12]: 81%
- Proliferation (mean cpm/culture) [2, 12]: 11,226 cpm/culture

B5: Cleaved calreticulin: calreticulin cleaved (factor Xa) and purified from MBP-calreticulin (protein, UniProt P27797 18-417, looked up)
Calreticulin: B4 chain
- Inhibition (%) [5]: 58%
- Mean Surface Area Occupied by Cells [5]: 3,464 mm^2/1.26 × 10^5 mm^2
- Inhibition (%) [2, 13]: 72%
- Proliferation mean cpm/culture (±SD) [2, 13]: 7,088 (1846) cpm/culture
